The record followed here is US20220347175A1, “PYRIDAZINONE DERIVATIVE” (Sumitomo Dainippon Pharma Co., Ltd., priority 2018, published 2022).

Each structure is given as a SMILES string.

In one assay the target is T1, human Nav1.1 (Homo sapiens, UniProt P35498).
T1 construct: host or cells: HEK293
The assay is described as follows: Amplification of Nav1.1-derived voltage-dependent sodium current (Nav1.1 current), cell line stably expressing human Nav1.1, automated patch clamp. The assay is classed as cell-based. The following applies: for activation at 3 µM: compound 3 μmol/L; for activation at 3 µM / activation at 1 µM / activation at 10 µM: read-out: Nav1.1 current amplification rate (%). The gist of the method:
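Amplification rate (%) is 100 × post-compound/pre-compound Nav1.1 peak current or AUC, minus 100. Ramp-evoked sodium currents were recorded by automated patch clamp in a human Nav1.1 HEK293 stable line, restricted to cells exceeding 500 pA, with compounds added in extracellular solution containing 1% DMSO.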

The target in the next assay is T2, human Nav1.5 (Homo sapiens, UniProt Q14524).
T2 construct: expressed in transfected cells; host or cells: CHO-K1 (T-REx System, ThermoFisher Scientific)
T2 sequence (Q14524 1-2015 isoform Q14524-2): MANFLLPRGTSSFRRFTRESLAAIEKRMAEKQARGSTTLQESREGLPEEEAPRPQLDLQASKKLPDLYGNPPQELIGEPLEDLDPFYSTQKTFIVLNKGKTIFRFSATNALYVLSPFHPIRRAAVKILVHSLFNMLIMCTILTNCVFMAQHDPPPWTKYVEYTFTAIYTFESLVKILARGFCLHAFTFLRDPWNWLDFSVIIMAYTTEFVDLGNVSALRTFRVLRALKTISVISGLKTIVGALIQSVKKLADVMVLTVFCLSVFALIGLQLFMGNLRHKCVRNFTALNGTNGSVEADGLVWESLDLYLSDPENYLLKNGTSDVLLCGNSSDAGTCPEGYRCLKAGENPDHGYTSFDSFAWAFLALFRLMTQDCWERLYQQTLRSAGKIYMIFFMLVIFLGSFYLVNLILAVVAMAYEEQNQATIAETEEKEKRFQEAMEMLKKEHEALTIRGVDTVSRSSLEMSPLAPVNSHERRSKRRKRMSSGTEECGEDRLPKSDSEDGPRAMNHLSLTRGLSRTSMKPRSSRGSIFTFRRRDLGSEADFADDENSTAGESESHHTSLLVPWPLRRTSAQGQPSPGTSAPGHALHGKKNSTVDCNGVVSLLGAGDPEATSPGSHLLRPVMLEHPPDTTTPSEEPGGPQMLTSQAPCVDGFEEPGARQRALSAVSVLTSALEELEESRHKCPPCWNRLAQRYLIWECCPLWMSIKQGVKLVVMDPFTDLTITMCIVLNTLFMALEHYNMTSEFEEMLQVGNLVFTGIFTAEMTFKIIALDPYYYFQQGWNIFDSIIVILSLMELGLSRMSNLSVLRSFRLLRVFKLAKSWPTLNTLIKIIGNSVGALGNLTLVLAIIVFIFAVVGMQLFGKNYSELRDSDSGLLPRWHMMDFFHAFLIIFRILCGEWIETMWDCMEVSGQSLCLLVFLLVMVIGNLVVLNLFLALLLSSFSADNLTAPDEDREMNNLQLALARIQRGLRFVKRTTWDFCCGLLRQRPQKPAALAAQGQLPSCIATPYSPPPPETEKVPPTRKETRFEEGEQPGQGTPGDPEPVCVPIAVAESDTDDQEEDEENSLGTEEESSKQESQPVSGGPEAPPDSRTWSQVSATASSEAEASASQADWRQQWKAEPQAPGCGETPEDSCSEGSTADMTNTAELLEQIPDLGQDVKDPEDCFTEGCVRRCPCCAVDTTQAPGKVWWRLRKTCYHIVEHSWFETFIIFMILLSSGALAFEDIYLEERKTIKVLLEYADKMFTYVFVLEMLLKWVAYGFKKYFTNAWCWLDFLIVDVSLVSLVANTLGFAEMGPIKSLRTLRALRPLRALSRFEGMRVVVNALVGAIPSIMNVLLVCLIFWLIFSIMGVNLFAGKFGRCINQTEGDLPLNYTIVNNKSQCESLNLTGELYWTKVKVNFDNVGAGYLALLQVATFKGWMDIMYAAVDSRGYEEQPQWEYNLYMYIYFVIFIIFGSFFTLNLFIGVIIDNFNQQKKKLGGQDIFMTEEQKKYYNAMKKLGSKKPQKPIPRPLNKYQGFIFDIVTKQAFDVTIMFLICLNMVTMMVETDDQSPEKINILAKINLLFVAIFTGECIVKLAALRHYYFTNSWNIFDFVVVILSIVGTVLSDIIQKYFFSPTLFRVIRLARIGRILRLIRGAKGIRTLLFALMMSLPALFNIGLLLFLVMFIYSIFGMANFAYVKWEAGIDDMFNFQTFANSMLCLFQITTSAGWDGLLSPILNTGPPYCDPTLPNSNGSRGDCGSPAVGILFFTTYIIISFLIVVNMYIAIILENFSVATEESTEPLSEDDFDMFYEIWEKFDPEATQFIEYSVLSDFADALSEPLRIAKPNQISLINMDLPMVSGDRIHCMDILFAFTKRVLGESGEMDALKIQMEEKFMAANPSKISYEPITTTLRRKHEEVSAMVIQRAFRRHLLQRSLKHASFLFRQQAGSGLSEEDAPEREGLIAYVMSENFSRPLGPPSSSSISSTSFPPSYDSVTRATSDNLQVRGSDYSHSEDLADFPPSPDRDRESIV
The assay is described as follows: Amplification of Nav1.5-derived voltage-dependent sodium current (Nav1.5 current), cell line stably expressing human Nav1.5, automated patch clamp. The assay is classed as cell-based. The following applies: for activation at 3 µM: compound 3 μmol/L; for activation at 3 µM / activation at 1 µM / activation at 10 µM: read-out: Nav1.5 current amplification rate (%). In general terms: Patch clamp records ionic current or voltage across a cell membrane.

Setting [1] is: 10 μmol/L compound, change of the area under the curve of Nav1.1 current (Test Result 1).
[2] abbreviates: 10 μmol/L compound, change of the area under the curve of Nav1.5 current (Test Result 1).
[3] abbreviates: compound 1 μmol/L, HEK293 stably expressing human Nav1.1.
Setting [4] is: compound 1 μmol/L, CHO-K1 stably expressing human Nav1.5.
Setting [5] is: HEK293 stably expressing human Nav1.1.
Where [6] appears, read: CHO-K1 stably expressing human Nav1.5.

Regarding `COc1cc(-c2cc(Cl)cs2)nn(CC(=O)N2CCc3c(N4CCOCC4)cccc32)c1=O` [Example 479], on human Nav1.1 (setting [1]), the “Nav1.1 current amplification rate (%)” value stood at 420%. The “Nav1.5 current amplification rate (%)” value at human Nav1.5 (setting [2]) is on record as 135%.

In the case of `O=C(Cn1nc(C2=CCCCC2)ccc1=O)N1CCc2c(N3CCOCC3)cccc21` [Example 480], the “Nav1.1 current amplification rate (%)” value on human Nav1.1 (setting [3]) is 110%. The “Nav1.5 current amplification rate (%)” value on human Nav1.5 (setting [4]) is 7%.

On to `CC1(C)CC=C(c2ccc(=O)n(CC(=O)N3CCN(c4cncc(F)c4)CC3)n2)C1` [Example 483], for which, at human Nav1.1 (setting [1]), the “Nav1.1 current amplification rate (%)” value is 175%. For the same compound, at human Nav1.5 (setting [2]), the “Nav1.5 current amplification rate (%)” value is 7%.

Turning to `COc1cc(C2=CCC(C)C2)nn(CC(=O)N2CCN(c3cncc(F)c3)CC2)c1=O` (stereo not drawn) [Example 485], the “Nav1.1 current amplification rate (%)” value at human Nav1.1 (setting [1]) amounted to 264%. The “Nav1.5 current amplification rate (%)” value on human Nav1.5 (setting [2]) is 3%.

Turning to `O=C(Cn1nc(C2=CCC(F)(F)CC2)ccc1=O)N1CCN(c2cncc(F)c2)CC1` [Example 489], on human Nav1.1 (setting [1]), the “Nav1.1 current amplification rate (%)” value was found to be 29%. Further, the “Nav1.5 current amplification rate (%)” value at human Nav1.5 (setting [2]) was 0%.

Turning to `COc1cc(=O)n(CC(=O)N2CCN(c3cncc(F)c3)CC2)nc1C1=CCC(C)(C)CC1` [Example 490], the “Nav1.1 current amplification rate (%)” value on human Nav1.1 (setting [1]) is reported as 469%. Further, the “Nav1.5 current amplification rate (%)” value on human Nav1.5 (setting [2]) is on record as 25%.

`COc1nc2cc(NC(=O)Cn3nc(C4=CCC(C)(C)CC4)c(OC)cc3=O)ccc2o1` [Example 491]: the activation at 3 µM on human Nav1.1 (setting [5]) came to 157%; on human Nav1.5 (setting [6]), 22%.

Regarding `COc1cc(=O)n(CC(=O)Nc2ccc3oc(C)nc3c2)nc1C1=CCC(C)(C)CC1` [Example 492], the activation at 3 µM at human Nav1.1 (setting [5]) came to 222%; on human Nav1.5 (setting [6]), 16%.

For the compound `COc1cc(=O)n(CC(=O)Nc2ccc3oc(C(F)F)nc3c2)nc1C1=CCC(C)(C)CC1` [Example 493], the activation at 3 µM at human Nav1.1 (setting [5]) amounted to 317%; on human Nav1.5 (setting [6]), 20%.

Consider `COc1nc2cc(NC(=O)Cn3nc(C4=CCC(C)(C)CC4)c(OC)cc3=O)cc(F)c2o1` [Example 494], for which the activation at 3 µM worked out at 255% on human Nav1.1 (setting [5]) and 26% on human Nav1.5 (setting [6]).

On to `Cc1cc(=O)n(CC(=O)Nc2ccn3ncnc3c2)nc1C1=CCC(C)CC1` (stereo not drawn) [Example 502], for which the activation at 1 µM at human Nav1.1 (setting [3]) is 49%; at human Nav1.5 (setting [4]) it was 7%.

Take `Cc1cc(=O)n(CC(=O)Nc2ccn3ncnc3c2)nc1C1=CCC(C)(C)CC1` [Example 503]: the activation at 1 µM on human Nav1.1 (setting [3]) amounted to 58%; on human Nav1.5 (setting [4]), 10%.

As to `CC1(C)CC=C(c2ccc(=O)n(CC(=O)N3CCN(c4cccnc4)CC3)n2)C1` [Example 508], the activation at 10 µM is 24% on human Nav1.1 (setting [1]) and -3% on human Nav1.5 (setting [2]).

On to `O=C(Cn1nc(C2=CCC3(CC2)CC3(F)F)ccc1=O)N1CCN(c2cncc(C(F)(F)F)c2)CC1` (stereo not drawn) [Example 509], for which the figures for the activation at 3 µM on human Nav1.1 (setting [5]) and at human Nav1.5 (setting [6]) were 238% and 5%, respectively.

For the compound `COc1ncc(C2=CCN(C(=O)Cn3nc(C4=CCC(C(F)(F)F)CC4)ccc3=O)CC2)cn1` (stereo not drawn) [Example 510], the activation at 3 µM was 50% at human Nav1.1 (setting [5]) and 7% on human Nav1.5 (setting [6]).

With `COc1ccc(N2CCN(C(=O)Cn3nc(C4=CCC(C(F)(F)F)CC4)ccc3=O)CC2)cn1` (stereo not drawn) [Example 511], the activation at 3 µM on human Nav1.1 (setting [5]) turned out to be 37%; on human Nav1.5 (setting [6]) it was 6%.

As for `O=C(Cn1nc(C2=CCC3(CC2)CC3)ccc1=O)Nc1ccn2ncnc2c1` [Example 512, 2-[6-oxo-3-(spiro[2.5]oct-5-en-6-yl)pyridazin-1(6H)-yl]-N-([1,2,4]triazolo[1,5-a]pyridin-7-yl)acetamide], the activation at 1 µM came to 103% at human Nav1.1 (setting [3]) and 34% on human Nav1.5 (setting [4]).

Turning to `Cc1cc(C2=CCC(C)(C)CC2)nn(CC(=O)N2CCN(c3cccnc3)CC2)c1=O` [Example 513], the results for the activation at 10 µM on human Nav1.1 (setting [1]) and on human Nav1.5 (setting [2]) were 262% and 4%, respectively.

On to `O=C(Cn1nc(C2=CCCCC2)ccc1=O)N1CCc2c(Cn3ccnc3)cccc21` [Example 515], for which the activation at 1 µM at human Nav1.1 (setting [3]) came to 255%; on human Nav1.5 (setting [4]) it was 287%.

For `Cc1ccc(-c2ccc(=O)n(CC(=O)N3CCc4c(C5CN(C6COC6)C5)cccc43)n2)cc1` [Example 516], the activation at 1 µM at human Nav1.1 (setting [3]) is 130%; on human Nav1.5 (setting [4]), 13%.

Turning to `O=C(Cn1nc(C2=CCCCC2)ccc1=O)N1CCc2c(-c3ccnnc3)cccc21` [Example 517], the figures for the activation at 1 µM at human Nav1.1 (setting [3]) and on human Nav1.5 (setting [4]) were 359% and 16%, respectively.

On to `Cc1ncc(-c2cccc3c2CCN3C(=O)Cn2nc(C3=CCCCC3)ccc2=O)cn1` [Example 518], for which the activation at 1 µM at human Nav1.1 (setting [3]) is 344%; at human Nav1.5 (setting [4]), 9%.

On to `CC(=O)N1CC(c2cccc3c2CCN3C(=O)Cn2nc(-c3ccc(C)cc3)ccc2=O)C1` [Example 520], for which the activation at 1 µM at human Nav1.1 (setting [3]) stood at 253%; on human Nav1.5 (setting [4]), 252%.

As for `O=C(Cn1nc(C2=CCCCC2)ccc1=O)N1CCc2c(-c3cnccn3)cccc21` [Example 521], the activation at 1 µM at human Nav1.1 (setting [3]) was determined as 358%; at human Nav1.5 (setting [4]), 9%.

With `O=C(Cn1nc(C2=CCCCC2)ccc1=O)N1CCc2c(-c3cncnc3)cccc21` [Example 522], the activation at 1 µM amounted to 367% on human Nav1.1 (setting [3]) and 25% at human Nav1.5 (setting [4]).

Turning to `O=C(Cn1nc(C2=CCCC2)ccc1=O)N1CCc2c(-c3ccnnc3)cccc21` [Example 523], the activation at 1 µM on human Nav1.1 (setting [3]) came out at 129%; at human Nav1.5 (setting [4]), 5%.

Regarding `O=C(Cn1nc(C2=CCCC2)ccc1=O)N1CCc2c(-c3cccnc3)cccc21` [Example 524], the activation at 1 µM at human Nav1.1 (setting [3]) came out at 143%; on human Nav1.5 (setting [4]), 5%.

Take `O=C(Cn1nc(C2=CCC3(CC2)CC3)ccc1=O)N1CCc2c(-c3ccnnc3)cccc21` [Example 526, 2-{2-oxo-2-[4-(pyridazin-4-yl)-2.3-dihydro-1H-indol-1-yl]ethyl}-6-(spiro[2.5]oct-5-en-6-yl)pyridazin-3(2H)one]: the activation at 1 µM was 499% on human Nav1.1 (setting [3]) and 1% on human Nav1.5 (setting [4]).

In the case of `O=C(Cn1nc(C2=CCC(F)(F)CC2)ccc1=O)N1CCc2c(-c3ccnnc3)cccc21` [Example 527], the activation at 1 µM turned out to be 324% on human Nav1.1 (setting [3]) and 36% at human Nav1.5 (setting [4]).

On to `O=C(Cn1nc(C2=CCCCC2)ccc1=O)N1CCc2c(C3=CCOCC3)cccc21` [Example 528], for which the activation at 1 µM at human Nav1.1 (setting [3]) amounted to 198%; at human Nav1.5 (setting [4]), 24%.

Consider `CC1CC=C(c2ccc(=O)n(CC(=O)Nc3ccc4ocnc4c3)n2)CC1` (stereo not drawn) [Example 531, N-(1,3-benzooxazol-5-yl)-2-[3-(4-methylcyclohex-1-en-1-yl)-6-oxopyridazin-1(6H)-yl]acetamide], for which the activation at 1 µM on human Nav1.1 (setting [3]) came out at 183%; on human Nav1.5 (setting [4]) it was 8%.

For `CC1CC=C(c2ccc(=O)n(CC(=O)Nc3ccn4ccnc4c3)n2)CC1` (stereo not drawn) [Example 532], the activation at 10 µM on human Nav1.1 (setting [1]) worked out at 239%; at human Nav1.5 (setting [2]) it was 47%.

`C[C@@H]1CC=C(c2ccc(=O)n(CC(=O)Nc3ccn4ncnc4c3)n2)CC1` [Example 537, 2-{3-[(4S)-4-methylcyclohex-1-en-1-yl]-6-oxopyridazin-1(6H)-yl}-N-([1,2,4]triazolo[1,5-a]pyridin-7-yl)acetamide]: the activation at 1 µM is 99% at human Nav1.1 (setting [3]) and 29% on human Nav1.5 (setting [4]).

Turning to `C[C@H]1CC=C(c2ccc(=O)n(CC(=O)Nc3ccn4ncnc4c3)n2)CC1` [Example 538, 2-{3-[(4R)-4-methylcyclohex-1-en-1-yl]-6-oxopyridazin-1(6H)-yl}-N-([1,2,4]triazolo[1,5-a]pyridin-7-yl)acetamide], the activation at 1 µM was 135% at human Nav1.1 (setting [3]) and 45% at human Nav1.5 (setting [4]).

`C[C@@H]1CC=C(c2ccc(=O)n(CC(=O)Nc3ccc4ncnn4c3)n2)CC1` [Example 539, 2-{3-[(4S)-4-methylcyclohex-1-en-1-yl]-6-oxopyridazin-1(6H)-yl}-N-([1,2,4]triazolo[1,5-a]pyridin-6-yl)acetamide]: the activation at 1 µM at human Nav1.1 (setting [3]) is 80%; at human Nav1.5 (setting [4]), 11%.

In the case of `C[C@H]1CC=C(c2ccc(=O)n(CC(=O)Nc3ccc4ncnn4c3)n2)CC1` [Example 540, 2-{3-[(4R)-4-methylcyclohex-1-en-1-yl]-6-oxopyridazin-1(6H)-yl}-N-([1,2,4]triazolo[1,5-a]pyridin-6-yl)acetamide], the activation at 1 µM amounted to 112% on human Nav1.1 (setting [3]) and 15% on human Nav1.5 (setting [4]).
